Laboratory results: patent publication US9956319B2, “Compositions useful as antibiofilm or antimicrobial agents and methods using same” (BAYLOR COLLEGE OF MEDICINE, priority 2012, dated 2018)

Experiments:
Type in all cases: cell-based
[1] = test system: methicillin-resistant Staphylococcus aureus (MRSA); assay: Bacterial colony counts extracted from impregnated central venous catheters after incubation in bacterial suspension; details: 10^5 cfu/ml suspension in TSB, 37° C., 24 hours
Protocol: (§1) In this example, segments of 7 French triple lumen polyurethane central venous catheters were impregnated with α-lipoic acid using the method described elsewhere (U.S. Pat. No. 6,589,591) and were subjected to zones of inhibition. Briefly, α-lipoic acid was dissolved in 88% formic acid (at a final solution concentration of 50 mg/ml). 85% ortho-Phosphoric acid and glycerol were then added to the solution at 79:8:13 (v/v/v) (formic acid:ortho-phosphoric acid:glycerol). After mixing the solution, 300 mg/ml of potassium chloride was added to the final solution and mixed.
(§2) Catheter segments were then placed in the impregnating solution at 55° C. with agitation for 1 hour in the dark. Catheter segments were then removed from the solution and dried under a fume hood overnight in the dark. Catheter segments were rinsed with deionized water the next day and let dry for another 18 hours in the dark. After the impregnation process and drying, one-centimeter segments of impregnated catheters were individually placed in 1 ml of 10^5 cfu/ml suspensions of methicillin-sensitive Staphylococcus epidermidis (MSSE), methicillin-resistant Staphylococcus epidermidis (MRSE), methicillin-resistant Staphylococcus aureus (MRSA), Klebsiella pneumoniae, Escherichia coli, or Proteus mirabilis in trypticase soy broth (TSB) at 37° C. for 24 hours. One-centimeter segments of non-impregnated catheters were also incubated individually in each bacterial suspension at 37° C. for 24 hours as controls. Catheter segments were removed from each bacterial suspension after this period, shaken to remove excess broth containing free-floating bacteria from their surfaces, placed in 1 ml of normal saline, sonicated for 5 minutes, and vortexed for 30 seconds.
(§3) Aliquots of each suspension and subsequent dilutions were cultured quantitatively.
(§4) To evaluate the anticolonization/antimicrobial activity of central venous catheters treated with lipoamide, segments of 7 French triple lumen polyurethane central venous catheters were impregnated with lipoamide using the same patented method described in Example 1 (U.S. Pat. No. 6,589,591) with 100 mg/ml (final solution volume) of the agent. After the impregnation process and drying, Catheter segments were then placed in the impregnating solution at 55° C. with agitation for 1 hour in the dark. Catheter segments were then removed from the solution and dried under a fume hood overnight in the dark. Catheter segments were rinsed with deionized water the next day and let dry for another 18 hours in the dark. After the impregnation process and drying, one-centimeter segments of impregnated catheters were individually placed in 1 ml of 10^5 cfu/ml suspensions of MRSE, MRSA, or P. aeruginosa in trypticase soy broth (TSB) at 37° C. for 24 hours. One-centimeter segments of non-impregnated catheters were also incubated individually in each bacterial suspension at 37° C. for 24 hours as controls. Catheter segments were removed from each bacterial suspension after this period, shaken to remove excess broth containing free-floating bacteria from their surfaces, placed in 1 ml of normal saline, sonicated for 5 minutes, and vortexed for 30 seconds.
(§5) To evaluate the anticolonization/antimicrobial activity of central venous catheters treated with dihydrolipoic acid, segments of 7 French triple lumen polyurethane central venous catheters were impregnated with dihydrolipoic acid using the same patented method described in Example 1 (U.S. Pat. No. 6,589,591) with 25 mg/ml (final solution volume) of the agent. After the impregnation process and drying, Catheter segments were then placed in the impregnating solution at 55° C. with agitation for 1 hour in the dark. Catheter segments were then removed from the solution and dried under a fume hood overnight in the dark. Catheter segments were rinsed with deionized water the next day and let dry for another 18 hours in the dark. […]

[2] = test system: methicillin-resistant Staphylococcus epidermidis (MRSE); assay: as above; details: 10^5 cfu/ml suspension in TSB, 37° C., 24 hours
Protocol: as §1, §2, §3, §4, §5

[3] = test system: common pathogens; assay: Anticolonization activity of impregnated central venous catheters, overall result in words; details: result in words summarising the culture results
Protocol: as §2, §3
as §5, with “lipoamide,” for “dihydrolipoic acid,”, “lipoamide” for “dihydrolipoic acid”, “100” for “25”

[4] = catheter impregnated with 25 mg/ml
[5] = catheter impregnated with 100 mg/ml
[6] = catheter impregnated with 50 mg/ml

Compound | Mean bacterial colony counts extracted from catheter [1, 4] | Mean bacterial colony counts extracted from catheter [2, 4] | bacterial cells adhered to treated catheter segments compared to control uncoated catheter segments [3] | Mean bacterial colony counts extracted from catheter [1, 5] | Mean bacterial colony counts extracted from catheter [2, 5] | Bacterial colony counts extracted from central venous catheters [1, 6] | Bacterial colony counts extracted from central venous catheters [2, 6]
O=C(O)CCCCC(S)CCS (stereo not drawn) [Dihydrolipoic acid, 6,8-dimercaptooctanoic acid] | 50 | 380 | substantially fewer bacterial cells adhered to them |  |  |  | 
NC(=O)CCCCC1CCSS1 (stereo not drawn) [Lipoamide, lipoamide] |  |  | substantially fewer or no bacterial cells adhered to them | 0 | 0 |  | 
O=C(O)CCCCC1CCSS1 (stereo not drawn) [Lipoic acid, 1,2-dithiolane-3-pentanoic acid] |  |  | substantially fewer or no bacterial cells adhered to them |  |  | 0 | 60
